From ChEMBL document CHEMBL1201862, “PubChem BioAssay data set” (2004)
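Assay format: 96-well plates, 48-hour exposure. GI50 is the concentration that inhibits growth by half.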 Activity calls are given as the source filed them. Cut-off read from the data, not from the text of the source: active = GI50 up to about 1.1 µM and inactive = higher.

Tests used:
Assay in all cases: NCI tumour cell line growth inhibition, 48 h
A498 = test system: A498
Hs-578T = test system: Hs-578T
MOLT-4 = test system: MOLT-4
HT-29 = test system: HT-29
MDA-N = test system: MDA-N
Malme-3M = test system: Malme-3M
MCF7 = test system: MCF7
IGROV-1 = test system: IGROV-1
TK-10 = test system: TK-10
HCC 2998 = test system: HCC 2998
SN12C = test system: SN12C
UO-31 = test system: UO-31
NCI-H226 = test system: NCI-H226
OVCAR-4 = test system: OVCAR-4
BT-549 = test system: BT-549
MDA-MB-231 = test system: MDA-MB-231
SK-MEL-28 = test system: SK-MEL-28
OVCAR-8 = test system: OVCAR-8
HCT-15 = test system: HCT-15
MDA-MB-435 = test system: MDA-MB-435
NCI-H522 = test system: NCI-H522
HL-60 = test system: HL-60
A549 = test system: A549
EKVX = test system: EKVX
CAKI-1 = test system: CAKI-1
OVCAR-3 = test system: OVCAR-3
SK-OV-3 = test system: SK-OV-3
PC-3 = test system: PC-3
DU-145 = test system: DU-145
M14 = test system: M14
HOP-92 = test system: HOP-92
OVCAR-5 = test system: OVCAR-5
HCT-116 = test system: HCT-116
NCI-H460 = test system: NCI-H460
SNB-19 = test system: SNB-19
T47D = test system: T47D
K562 = test system: K562
ACHN = test system: ACHN
NCI/ADR-RES = test system: NCI/ADR-RES
UACC-257 = test system: UACC-257
UACC-62 = test system: UACC-62
SF-295 = test system: SF-295
CCRF-CEM = test system: CCRF-CEM
KM12 = test system: KM12
SK-MEL-5 = test system: SK-MEL-5
786-0 = test system: 786-0
SK-MEL-2 = test system: SK-MEL-2
NCI-H23 = test system: NCI-H23
U-251 = test system: U-251
HOP-62 = test system: HOP-62
RPMI-8226 = test system: RPMI-8226
SF-268 = test system: SF-268
RXF 393 = test system: RXF 393
COLO 205 = test system: COLO 205
SR = test system: SR
SF-539 = test system: SF-539
SW-620 = test system: SW-620
LOX IMVI = test system: LOX IMVI
SNB-75 = test system: SNB-75

COc1cc(/C=C(\C#N)c2nc3ccccc3o2)ccc1O
GI50 (A498): 16.3 µM (inactive)
GI50 (Hs-578T): 23.1 µM (inactive)
GI50 (MOLT-4): 28.5 µM (inactive)
GI50 (HT-29): 22.3 µM (inactive)
GI50 (MDA-N): 23 µM (inactive)
GI50 (Malme-3M): 19.8 µM (inactive)
GI50 (MCF7): 10 µM (inactive)
GI50 (IGROV-1): 17.2 µM (inactive)
GI50 (TK-10): 24.4 µM (inactive)
GI50 (HCC 2998): 20.9 µM (inactive)
GI50 (SN12C): 34.7 µM (inactive)
GI50 (UO-31): 25.5 µM (inactive)
GI50 (NCI-H226): 15.4 µM (inactive)
GI50 (OVCAR-4): 11.2 µM (inactive)
GI50 (BT-549): 16.1 µM (inactive)
GI50 (MDA-MB-231): 21.8 µM (inactive)
GI50 (SK-MEL-28): 17.7 µM (inactive)
GI50 (OVCAR-8): 21.6 µM (inactive)
GI50 (HCT-15): 16.4 µM
GI50 (MDA-MB-435): 16.4 µM (inactive)
GI50 (NCI-H522): 13.3 µM (inactive)
GI50 (HL-60): 19.6 µM (inactive)
GI50 (A549): 17.8 µM (inactive)
GI50 (EKVX): 21.6 µM (inactive)
GI50 (CAKI-1): 17.3 µM (inactive)
GI50 (OVCAR-3): 14 µM (inactive)
GI50 (SK-OV-3): 17.7 µM (inactive)
GI50 (PC-3): 21.2 µM (inactive)
GI50 (DU-145): 25.6 µM (inactive)
GI50 (M14): 13.6 µM (inactive)
GI50 (HOP-92): 14.1 µM (inactive)
GI50 (OVCAR-5): 22 µM (inactive)
GI50 (HCT-116): 16.5 µM (inactive)
GI50 (NCI-H460): 15 µM (inactive)
GI50 (SNB-19): 32.4 µM (inactive)
GI50 (T47D): 13.3 µM (inactive)
GI50 (K562): 35.4 µM (inactive)
GI50 (ACHN): 19 µM (inactive)
GI50 (NCI/ADR-RES): 24.1 µM (inactive)
GI50 (UACC-257): 23.5 µM (inactive)
GI50 (UACC-62): 18.6 µM (inactive)
GI50 (SF-295): 17.6 µM (inactive)
GI50 (CCRF-CEM): 26.3 µM (inactive)
GI50 (KM12): 17.6 µM (inactive)
GI50 (SK-MEL-5): 12.6 µM (inactive)
GI50 (786-0): 24.9 µM (inactive)
GI50 (SK-MEL-2): 18 µM (inactive)
GI50 (NCI-H23): 24.2 µM (inactive)
GI50 (U-251): 12.3 µM (inactive)
GI50 (HOP-62): 21 µM (inactive)
GI50 (RPMI-8226): 21 µM (inactive)
GI50 (SF-268): 19.9 µM (inactive)
GI50 (RXF 393): 39.5 µM (inactive)
GI50 (COLO 205): 16.9 µM (inactive)
GI50 (SR): 24.2 µM (inactive)
GI50 (SF-539): 12 µM (inactive)

CN(C)c1ccc(/C=C(\C#N)C(N)=C(C#N)C#N)cc1
GI50 (A498): > 100 µM (inactive)
GI50 (Hs-578T): > 100 µM (inactive)
GI50 (HT-29): > 100 µM (inactive)
GI50 (MDA-N): > 100 µM (inactive)
GI50 (Malme-3M): 32 µM (inactive)
GI50 (MCF7): > 100 µM (inactive)
GI50 (IGROV-1): > 100 µM (inactive)
GI50 (TK-10): > 100 µM (inactive)
GI50 (HCC 2998): > 100 µM (inactive)
GI50 (SN12C): > 100 µM (inactive)
GI50 (UO-31): > 100 µM (inactive)
GI50 (NCI-H226): > 100 µM (inactive)
GI50 (OVCAR-4): > 100 µM (inactive)
GI50 (BT-549): > 100 µM (inactive)
GI50 (MDA-MB-231): > 100 µM (inactive)
GI50 (SK-MEL-28): 80 µM (inactive)
GI50 (OVCAR-8): > 100 µM (inactive)
GI50 (HCT-15): > 100 µM
GI50 (MDA-MB-435): > 100 µM (inactive)
GI50 (SW-620): > 100 µM (inactive)
GI50 (NCI-H522): > 100 µM (inactive)
GI50 (HL-60): > 100 µM (inactive)
GI50 (A549): > 100 µM (inactive)
GI50 (EKVX): > 100 µM (inactive)
GI50 (CAKI-1): > 100 µM (inactive)
GI50 (OVCAR-3): > 100 µM (inactive)
GI50 (SK-OV-3): > 100 µM (inactive)
GI50 (PC-3): > 100 µM (inactive)
GI50 (DU-145): > 100 µM (inactive)
GI50 (M14): 30 µM (inactive)
GI50 (HOP-92): > 100 µM (inactive)
GI50 (OVCAR-5): > 100 µM (inactive)
GI50 (HCT-116): > 100 µM (inactive)
GI50 (NCI-H460): > 100 µM (inactive)
GI50 (SNB-19): > 100 µM (inactive)
GI50 (T47D): > 100 µM (inactive)
GI50 (LOX IMVI): > 100 µM (inactive)
GI50 (K562): > 100 µM (inactive)
GI50 (ACHN): > 100 µM (inactive)
GI50 (NCI/ADR-RES): > 100 µM (inactive)
GI50 (UACC-257): 97.9 µM (inactive)
GI50 (UACC-62): 94 µM (inactive)
GI50 (SF-295): > 100 µM (inactive)
GI50 (CCRF-CEM): > 100 µM (inactive)
GI50 (KM12): > 100 µM (inactive)
GI50 (SK-MEL-5): > 100 µM (inactive)
GI50 (786-0): > 100 µM (inactive)
GI50 (NCI-H23): > 100 µM (inactive)
GI50 (U-251): > 100 µM (inactive)
GI50 (HOP-62): > 100 µM (inactive)
GI50 (SF-268): > 100 µM (inactive)
GI50 (RXF 393): > 100 µM (inactive)
GI50 (COLO 205): > 100 µM (inactive)
GI50 (SR): > 100 µM (inactive)
GI50 (SF-539): > 100 µM (inactive)

O=[N+]([O-])C(=C(NCc1ccccc1)NCc1ccccc1)C(Cl)=C(Cl)Cl
GI50 (A498): 61.7 µM (inactive)
GI50 (Hs-578T): 49.2 µM (inactive)
GI50 (MOLT-4): 23.1 µM (inactive)
GI50 (HT-29): 39.5 µM (inactive)
GI50 (MDA-N): 25.2 µM (inactive)
GI50 (Malme-3M): 19 µM (inactive)
GI50 (MCF7): 41.1 µM (inactive)
GI50 (IGROV-1): 34 µM (inactive)
GI50 (TK-10): 35.9 µM (inactive)
GI50 (HCC 2998): 40.6 µM (inactive)
GI50 (SN12C): 34.9 µM (inactive)
GI50 (UO-31): 25.3 µM (inactive)
GI50 (NCI-H226): 39.5 µM (inactive)
GI50 (OVCAR-4): 31.7 µM (inactive)
GI50 (BT-549): 34.4 µM (inactive)
GI50 (MDA-MB-231): 29.4 µM (inactive)
GI50 (SK-MEL-28): 61.2 µM (inactive)
GI50 (OVCAR-8): 36.6 µM (inactive)
GI50 (HCT-15): 23.3 µM
GI50 (MDA-MB-435): 22.9 µM (inactive)
GI50 (SW-620): 36.9 µM (inactive)
GI50 (NCI-H522): 37 µM (inactive)
GI50 (HL-60): 20.2 µM (inactive)
GI50 (A549): 42.7 µM (inactive)
GI50 (EKVX): 51.3 µM (inactive)
GI50 (CAKI-1): 10.7 µM (inactive)
GI50 (OVCAR-3): 21.6 µM (inactive)
GI50 (SK-OV-3): 51.1 µM (inactive)
GI50 (PC-3): 32.1 µM (inactive)
GI50 (DU-145): 69.3 µM (inactive)
GI50 (M14): 26 µM (inactive)
GI50 (HOP-92): 37.3 µM (inactive)
GI50 (HCT-116): 30 µM (inactive)
GI50 (NCI-H460): 37.5 µM (inactive)
GI50 (SNB-19): 28.2 µM (inactive)
GI50 (T47D): 27.3 µM (inactive)
GI50 (LOX IMVI): 17.4 µM (inactive)
GI50 (K562): 22.3 µM (inactive)
GI50 (ACHN): 21.6 µM (inactive)
GI50 (NCI/ADR-RES): 45.1 µM (inactive)
GI50 (UACC-257): 38.1 µM (inactive)
GI50 (UACC-62): 30.9 µM (inactive)
GI50 (SF-295): 24.5 µM (inactive)
GI50 (CCRF-CEM): 23.1 µM (inactive)
GI50 (KM12): 20.3 µM (inactive)
GI50 (SK-MEL-5): 20.2 µM (inactive)
GI50 (786-0): 43.6 µM (inactive)
GI50 (NCI-H23): 38.4 µM (inactive)
GI50 (HOP-62): > 100 µM (inactive)
GI50 (RPMI-8226): 29.9 µM (inactive)
GI50 (SF-268): 20.8 µM (inactive)
GI50 (SNB-75): 2.1 µM (inactive)
GI50 (RXF 393): 28 µM (inactive)
GI50 (COLO 205): 19.4 µM (inactive)
GI50 (SR): 23.8 µM (inactive)
GI50 (SF-539): 43 µM (inactive)
